Reference: patent publication US20090042883A1, “ANTITUMOR AGENT” (KYOWA HAKKOKOGYO CO., priority 2005, published 2009)

Experiments:
Type in all cases: cell-based
[1] = tested on: human mammary cancer BT-474 cells; assay: Growth inhibition test on human mammary cancer BT-474 cells (WST-1, % viability); conditions: test compound 10 μmol/L, cells without test compound = 100%
Description: (§1) Four thousand cells of human mammary cancer BT-474 were inoculated into each well of a 96-well microplate (manufactured by Nunc Corp.), and using Dulbecco's Modified Eagle's Medium (DMEM) (culture medium) containing 10% FCS, preculturing was performed in a 5% carbon dioxide incubator at 37° C. for 24 hours. A DMSO solution of each test compound prepared in a concentration of 10 mmol/L was diluted with the culture medium to a final concentration of 10 μmol/L, and the diluted solution was added to each well. The individual wells were further cultured in the 5% carbon dioxide incubator at 37° C. for 72 hours. After completion of the culturing, 10 μL of WST-1 labeled mixture (manufactured by Roche Diagnostic Corp.) was added to each well, and culturing was performed in the 5% carbon dioxide incubator at 37° C. for 2 hours. Using a microplate spectrophotometer (SpectraMax 340PC384; manufactured by Nihon Molecular Devices), the absorbance of each well was measured at 450 nm and 655 nm. The value obtained by subtracting the absorbance at 450 nm from the absorbance at 655 nm (absorbance difference) was calculated for each well. The value for cells not incorporated with a test compound was designated as 100%, and the value at a well not containing cells was designated as 0%. By comparing these values with the absorbance difference obtained at the well in which each test compound was added, the cell viability (% viability) after treatment with the test compound was calculated.

[2] = tested on: human lung cancer NCI-H596 cells; assay: Growth inhibition test on human lung cancer NCI-H596 cells (WST-1, % viability); conditions: test compound 10 μmol/L, cells without test compound = 100%
Description: as §1, with “lung” for “mammary”, “NCI-H596” for “BT-474”, “RPMI1640 medium” for “Dulbecco's Modified Eagle's Medium (DMEM)”, “(Model 550;” for “(SpectraMax 340PC384;”, “Bio-Rad),” for “Nihon Molecular Devices),”

[3] = tested on: human multiple myeloma NCI-H929 cells; assay: Growth inhibition test on human multiple myeloma NCI-H929 cells (WST-1, % viability); conditions: test compound 10 μmol/L, cells without test compound = 100%
Description: as §1, with “Ten” for “Four”, “multiple myeloma NCI-H929” for “mammary cancer BT-474”, “RPMI medium” for “Dulbecco's Modified Eagle's Medium (DMEM)”

[4] = tested on: human T-cell lymphoma Karpas-299 cells; assay: Growth inhibition test on human T-cell lymphoma Karpas-299 cells (WST-1, % viability); conditions: test compound 10 μmol/L, 72 hours, cells without test compound = 100%
Description: as §1, with “Five” for “Four”, “T-cell lymphoma Karpas-299” for “mammary cancer BT-474”, “RPMI medium” for “Dulbecco's Modified Eagle's Medium (DMEM)”, “5” for “24”

[5] = tested on: human renal cancer OS-RC-2 cells; assay: Growth inhibition test on human renal cancer OS-RC-2 cells (WST-1, % viability); conditions: test compound 10 μmol/L, 72 hours, cells without test compound = 100%
Description: as §1, with “One” for “Four”, “renal” for “mammary”, “OS-RC-2” for “BT-474”, “RPMI1640 medium” for “Dulbecco's Modified Eagle's Medium (DMEM)”, “(Model 550;” for “(SpectraMax 340PC384;”, “Bio-Rad),” for “Nihon Molecular Devices),”

Structure (SMILES): CCOc1ccc(C(=O)c2c(O)cc(O)c(CC)c2CC(=O)N(CCO)CCOC)cc1 [Compound 122]
- Viability of tumor cells (% viability), Human mammary cancer BT-474 cells [1]: 12%
- Viability of tumor cells (% viability), Human lung cancer NCI-H596 cells [2]: 15%
- Viability of tumor cells (% viability), Human multiple myeloma NCI-H929 cells [3]: 0%
- Viability of tumor cells (% viability), Human T-cell lymphoma Karpas-299 cells [4]: 12%
- Viability of tumor cells (% viability), Human renal cancer OS-RC-2 cells [5]: 15%

Structure (SMILES): CCc1c(O)cc(O)c(C(=O)c2ccc(OC)cc2)c1CC(=O)N(C)Cc1cccnc1 [Compound 16]
- Viability of tumor cells (% viability), Human mammary cancer BT-474 cells [1]: 12%
- Viability of tumor cells (% viability), Human lung cancer NCI-H596 cells [2]: 19%
- Viability of tumor cells (% viability), Human multiple myeloma NCI-H929 cells [3]: 0%
- Viability of tumor cells (% viability), Human T-cell lymphoma Karpas-299 cells [4]: 13%
- Viability of tumor cells (% viability), Human renal cancer OS-RC-2 cells [5]: 17%

Structure (SMILES): CCc1c(O)cc(O)c(C(=O)c2ccc(OCCN3CCOCC3)c(OC)c2)c1CC(=O)N(CCOC)CCOC [Compound 125]
- Viability of tumor cells (% viability), Human mammary cancer BT-474 cells [1]: 14%
- Viability of tumor cells (% viability), Human lung cancer NCI-H596 cells [2]: 17%
- Viability of tumor cells (% viability), Human multiple myeloma NCI-H929 cells [3]: 0%
- Viability of tumor cells (% viability), Human T-cell lymphoma Karpas-299 cells [4]: 15%
- Viability of tumor cells (% viability), Human renal cancer OS-RC-2 cells [5]: 20%

Structure (SMILES): CCc1c(O)cc(O)c(C(=O)c2ccc(C(F)(F)F)cc2)c1CC(=O)N(CCO)CCOC [Compound 144]
- Viability of tumor cells (% viability), Human mammary cancer BT-474 cells [1]: 13%
- Viability of tumor cells (% viability), Human lung cancer NCI-H596 cells [2]: 14%
- Viability of tumor cells (% viability), Human multiple myeloma NCI-H929 cells [3]: 0%
- Viability of tumor cells (% viability), Human T-cell lymphoma Karpas-299 cells [4]: 15%
- Viability of tumor cells (% viability), Human renal cancer OS-RC-2 cells [5]: 16%

Structure (SMILES): CCc1c(O)cc(O)c(C(=O)c2ccc(OC(C)C)cc2)c1CC(=O)N(CCOC)CCN1CCOCC1 [Compound 134]
- Viability of tumor cells (% viability), Human mammary cancer BT-474 cells [1]: 13%
- Viability of tumor cells (% viability), Human lung cancer NCI-H596 cells [2]: 17%
- Viability of tumor cells (% viability), Human multiple myeloma NCI-H929 cells [3]: 0%
- Viability of tumor cells (% viability), Human T-cell lymphoma Karpas-299 cells [4]: 16%
- Viability of tumor cells (% viability), Human renal cancer OS-RC-2 cells [5]: 21%

Structure (SMILES): CCc1c(O)cc(O)c(C(=O)c2ccc(OC)cc2)c1CC(=O)N(CCO)CCO [Compound 13]
- Viability of tumor cells (% viability), Human mammary cancer BT-474 cells [1]: 12%
- Viability of tumor cells (% viability), Human lung cancer NCI-H596 cells [2]: 35%
- Viability of tumor cells (% viability), Human multiple myeloma NCI-H929 cells [3]: 0%
- Viability of tumor cells (% viability), Human T-cell lymphoma Karpas-299 cells [4]: 27%
- Viability of tumor cells (% viability), Human renal cancer OS-RC-2 cells [5]: 66%

Structure (SMILES): CCc1c(O)cc(O)c(C(=O)c2ccc(OC(C)C)cc2)c1CC(=O)N(CCO)CCOC [Compound 124]
- Viability of tumor cells (% viability), Human mammary cancer BT-474 cells [1]: 13%
- Viability of tumor cells (% viability), Human lung cancer NCI-H596 cells [2]: 15%
- Viability of tumor cells (% viability), Human multiple myeloma NCI-H929 cells [3]: 0%
- Viability of tumor cells (% viability), Human T-cell lymphoma Karpas-299 cells [4]: 14%
- Viability of tumor cells (% viability), Human renal cancer OS-RC-2 cells [5]: 15%

Structure (SMILES): CCc1c(O)cc(O)c(C(=O)c2ccc(OC)cc2)c1CC(=O)N(CCO)Cc1ccco1 [Compound 69]
- Viability of tumor cells (% viability), Human mammary cancer BT-474 cells [1]: 13%
- Viability of tumor cells (% viability), Human lung cancer NCI-H596 cells [2]: 15%
- Viability of tumor cells (% viability), Human multiple myeloma NCI-H929 cells [3]: 0%
- Viability of tumor cells (% viability), Human T-cell lymphoma Karpas-299 cells [4]: 14%
- Viability of tumor cells (% viability), Human renal cancer OS-RC-2 cells [5]: 16%

Structure (SMILES): CCc1c(O)cc(O)c(C(=O)c2ccc(S(C)(=O)=O)cc2)c1CC(=O)N(CCOC)CCOC [Compound 107]
- Viability of tumor cells (% viability), Human mammary cancer BT-474 cells [1]: 13%
- Viability of tumor cells (% viability), Human lung cancer NCI-H596 cells [2]: 16%
- Viability of tumor cells (% viability), Human multiple myeloma NCI-H929 cells [3]: 0%
- Viability of tumor cells (% viability), Human T-cell lymphoma Karpas-299 cells [4]: 14%
- Viability of tumor cells (% viability), Human renal cancer OS-RC-2 cells [5]: 18%
